# In patent US5883243A, “Non-reducing saccharides, their preparations and uses” (Kabushiki Kaisha Hayashibara Seibutsu Kagaku Kenkyujo, priority 1997, dated 1999):
# How the values were obtained:
# [1] = system: Lactobacillus fermentum IFO 3959; assay: Assimilation test by intestinal microorganism; format: cell-based; settings: 0.5 w/v % saccharide in PYF broth, 37° C., 96 hours
# [2] = system: Bacteroides distasonis JCM 5825; assay: Assimilation test by intestinal microorganism; format: cell-based; settings: 0.5 w/v % saccharide in PYF broth, 37° C., 96 hours
# [3] = system: Clostridium ramosum JCM 1298; assay: Assimilation test by intestinal microorganism; format: cell-based; settings: 0.5 w/v % saccharide in PYF broth, 37° C., 96 hours
# [4] = system: Bifidobacterium infantis JCM 1222; assay: Assimilation test by intestinal microorganism; format: cell-based; settings: 0.5 w/v % saccharide in PYF broth, 37° C., 96 hours
# [5] = system: Eubacterium aerofaciens ATCC 25986; assay: Assimilation test by intestinal microorganism; format: cell-based; settings: 0.5 w/v % saccharide in PYF broth, 37° C., 96 hours
# [6] = system: Bifidobacterium breve JCM 1192; assay: Assimilation test by intestinal microorganism; format: cell-based; settings: 0.5 w/v % saccharide in PYF broth, 37° C., 96 hours
# [7] = system: Streptococcus sobrinus ATCC 27351; assay: Acid formation by dental caries-inducing microorganisms; settings: living wet cells, 0.02M saccharide, Stephen buffer pH 7.0, 37° C.; for pH at each fermentation time (min): 0: 0 min; for pH at each fermentation time (min): 5: 5 min; for pH at each fermentation time (min): 15: 15 min; for pH at each fermentation time (min): 30: 30 min; for pH at each fermentation time (min): 60: 60 min; for pH at each fermentation time (min): 90: 90 min
# [8] = system: Bifidobacterium bifidum JCM 1255; assay: Assimilation test by intestinal microorganism; format: cell-based; settings: 0.5 w/v % saccharide in PYF broth, 37° C., 96 hours
# [9] = system: Peptostreptococcus prevotii ATCC 9321; assay: Assimilation test by intestinal microorganism; format: cell-based; settings: 0.5 w/v % saccharide in PYF broth, 37° C., 96 hours
# [10] = system: Bifidobacterium adolescentis JCM 1275; assay: Assimilation test by intestinal microorganism; format: cell-based; settings: 0.5 w/v % saccharide in PYF broth, 37° C., 96 hours
# [11] = system: Lactobacillus plantarum IFO 3070; assay: Assimilation test by intestinal microorganism; format: cell-based; settings: 0.5 w/v % saccharide in PYF broth, 37° C., 96 hours
# [12] = system: Bacteroides vulgatus JCM 5826; assay: Assimilation test by intestinal microorganism; format: cell-based; settings: 0.5 w/v % saccharide in PYF broth, 37° C., 96 hours
# [13] = system: Streptococcus faecalis IAM 10065; assay: Assimilation test by intestinal microorganism; format: cell-based; settings: 0.5 w/v % saccharide in PYF broth, 37° C., 96 hours
# [14] = system: Escherichia coli IFO 3301; assay: Assimilation test by intestinal microorganism; format: cell-based; settings: 0.5 w/v % saccharide in PYF broth, 37° C., 96 hours
# [15] = system: Clostridium perfringens JCM 3816; format: cell-based; settings: 0.5 w/v % saccharide in PYF broth, 37° C., 96 hours
# [16] = system: Clostridium sporogenes JCM 1416; assay: Assimilation test by intestinal microorganism; format: cell-based; settings: 0.5 w/v % saccharide in PYF broth, 37° C., 96 hours, free of sugar: ±
# Method: (§1) To evaluate the growth rate of and to judge the assimilability by the microorganisms, the resultant broth was diluted 5-fold, and the turbidity of the dilution was measured at a wavelength of 750 nm in a 1-cm light-path cell. […] The criteria were in Table 3, and the results were in Tables 4 and 5: […]
# [17] = system: Bifidobacterium animalis JCM 1190; assay: Assimilation test by intestinal microorganism; format: cell-based; settings: 0.5 w/v % saccharide in PYF broth, 37° C., 96 hours
# [18] = system: Bifidobacterium longum JCM 1217; assay: Assimilation test by intestinal microorganism; format: cell-based; settings: 0.5 w/v % saccharide in PYF broth, 37° C., 96 hours
# [19] = system: Bacteroides uniformis JCM 5828; assay: Assimilation test by intestinal microorganism; format: cell-based; settings: 0.5 w/v % saccharide in PYF broth, 37° C., 96 hours
# [20] = Maillard reaction (coloration with glycine); format: physicochemical; settings: 10 w/v % saccharide, one w/v % glycine, 50 mM phosphate buffer pH 7.0, 100° C., 90 min; 1-cm cell
# [21] = system: crude glucosyltransferase specimen derived from Streptococcus sobrinus strain (ATCC 27351); assay: Inhibition of insoluble glucan formation by glucosyltransferase from dental caries-inducing microorganism; format: biochemical; settings: for Yield of non-adsorbed glucans / Yield of adsorbed glucans: sucrose plus test saccharide (one ml of one w/v % each), pH 6.8, 37° C., 16 hours; for Yield of non-adsorbed glucans: sucrose alone 923; for Yield of adsorbed glucans: sucrose alone 1,160
# Method: To a mixture solution consisting of one ml of one w/v % sucrose solution, one ml of one w/v % of a test saccharide solution, and 1.5 ml of 0.1M phosphate buffer (pH 6.8) was added 0.5 ml solution containing a crude glucosyltransferase specimen in a total protein content of 10 mg, and the mixture solution was placed in a small test tube which was then fixed and slanted to give a grade 30 degrees and allowed to react at 37° C. for 16 hours. The reaction mixture was transferred gently to another test tube and mixed with a solution obtained by washing carefully with 4 ml water the remaining substances adhered to the inner walls of the small test tube, and the mixture solution was centrifuged to obtain a precipitate as a non-adsorbed glucan. The amounts of the adsorbed- and non-adsorbed glucans thus obtained were respectively quantified by the anthrone-sulfuric acid method, and the total amount of them was regarded as the amount of the formed insoluble glucans. As a control system, a reaction system using water in place of the test saccharide solution, i.e. a reaction system using sucrose as a saccharide, was provided.
# [22] = system: Clostridium butyricum JCM 1391; format: cell-based; settings: 0.5 w/v % saccharide in PYF broth, 37° C., 96 hours
# bifid bacteria = assay: Assimilation test by intestinal microorganism, overall judgement; format: cell-based; settings: results of Tables 4 and 5
# Method: as §1
# [23] = system: Enzyme from small intestinal mucus membrane; settings: enzymes of small intestinal mucus membranes
SMILES,Judgement of assimilation (turbidity at a wavelength of 750 nm × 5) [1],Judgement of assimilation (turbidity at a wavelength of 750 nm × 5) [2],Judgement of assimilation (turbidity at a wavelength of 750 nm × 5) [3],Judgement of assimilation (turbidity at a wavelength of 750 nm × 5) [4],Judgement of assimilation (turbidity at a wavelength of 750 nm × 5) [5],Judgement of assimilation (turbidity at a wavelength of 750 nm × 5) [6],pH at each fermentation time (min): 0 [7],pH at each fermentation time (min): 5 [7],pH at each fermentation time (min): 15 [7],pH at each fermentation time (min): 30 [7],pH at each fermentation time (min): 60 [7],pH at each fermentation time (min): 90 [7],Judgement of assimilation (turbidity at a wavelength of 750 nm × 5) [8],Judgement of assimilation (turbidity at a wavelength of 750 nm × 5) [9],Judgement of assimilation (turbidity at a wavelength of 750 nm × 5) [10],Judgement of assimilation (turbidity at a wavelength of 750 nm × 5) [11],Judgement of assimilation (turbidity at a wavelength of 750 nm × 5) [12],Judgement of assimilation (turbidity at a wavelength of 750 nm × 5) [13],Judgement of assimilation (turbidity at a wavelength of 750 nm × 5) [14],Judgement of assimilation (turbidity at a wavelength of 750 nm × 5) [17],other results
"OC[C@H]1O[C@H](OC[C@H]2OC(O)[C@H](O)[C@@H](O)[C@@H]2O)[C@H](O)[C@@H](O)[C@@H]1O (some centres unmarked) [Isomaltose, isomaltose, reference compound]",- (Less than 0.1),+ (0.15 or higher but less than 0.2),- (Less than 0.1),+++ (0.3 or higher),+ (0.15 or higher but less than 0.2),+++ (0.3 or higher),7.0,7.0,6.9,6.9,6.8,6.7,+ (0.15 or higher but less than 0.2),- (Less than 0.1),+++ (0.3 or higher),- (Less than 0.1),- (Less than 0.1),+ (0.15 or higher but less than 0.2),- (Less than 0.1),+++ (0.3 or higher),Judgement of assimilation (turbidity at a wavelength of 750 nm × 5) [15]: ± (0.1 or higher but less than 0.15); Judgement of assimilation (turbidity at a wavelength of 750 nm × 5) [16]: ± (0.1 or higher but less than 0.15); Judgement of assimilation (turbidity at a wavelength of 750 nm × 5) [18]: ++ (0.2 or higher but less than 0.3); Judgement of assimilation (turbidity at a wavelength of 750 nm × 5) [19]: - (Less than 0.1)
"OC[C@H]1O[C@@](CO)(O[C@H]2O[C@H](CO)[C@@H](O)[C@H](O)[C@H]2O)[C@@H](O)[C@@H]1O [Sucrose, sucrose, reference compound]",,,,,,,7.0,4.3,4.1,4.0,4.0,4.0,,,,,,,,,
"OC[C@H]1O[C@H](O[C@H]2O[C@H](CO)[C@@H](O)[C@H](O)[C@H]2O)[C@H](O)[C@@H](O)[C@@H]1O [Trehalose, trehalose, reference compound]",+ (0.15 or higher but less than 0.2),++ (0.2 or higher but less than 0.3),+ (0.15 or higher but less than 0.2),- (Less than 0.1),- (Less than 0.1),- (Less than 0.1),7.0,6.7,5.3,4.7,4.3,4.2,+ (0.15 or higher but less than 0.2),+ (0.15 or higher but less than 0.2),+ (0.15 or higher but less than 0.2),++ (0.2 or higher but less than 0.3),+ (0.15 or higher but less than 0.2),+ (0.15 or higher but less than 0.2),- (Less than 0.1),+ (0.15 or higher but less than 0.2),"Coloration degree (at a wavelength of 480 nm) [20]: 0.007; Yield of non-adsorbed glucans [21]: 1,130 μg/ml; Yield of adsorbed glucans [21]: 772 µg/mL; Inhibitory percentage (%) on insoluble glucans' formation ([21]; sucrose plus test saccharide, versus sucrose alone): 8.7%; Judgement of assimilation (turbidity at a wavelength of 750 nm × 5) [15]: +++ (0.3 or higher); Judgement of assimilation (turbidity at a wavelength of 750 nm × 5) [22]: +++ (0.3 or higher); Judgement of assimilation (turbidity at a wavelength of 750 nm × 5) [18]: ++ (0.2 or higher but less than 0.3); Judgement of assimilation (turbidity at a wavelength of 750 nm × 5) [19]: ++ (0.2 or higher but less than 0.3)"
"OC[C@H]1O[C@H](OC[C@H]2O[C@H](OC[C@H]3O[C@H](O[C@H]4O[C@H](CO)[C@@H](O)[C@H](O)[C@H]4O)[C@H](O)[C@@H](O)[C@@H]3O)[C@H](O)[C@@H](O)[C@@H]2O)[C@H](O)[C@@H](O)[C@@H]1O [α-Isomaltotriosyl α-glucoside, O-α-D-glucopyranosyl-(1→6 )-O-α-D-glucopyranosyl-(1→6)-α-D-glucopyranosyl α-D-glucopyrandside]",- (Less than 0.1),- (Less than 0.1),- (Less than 0.1),++ (0.2 or higher but less than 0.3),- (Less than 0.1),+++ (0.3 or higher),7.0,7.0,6.9,6.9,6.9,6.9,++ (0.2 or higher but less than 0.3),± (0.1 or higher but less than 0.15),+++ (0.3 or higher),- (Less than 0.1),- (Less than 0.1),- (Less than 0.1),- (Less than 0.1),+++ (0.3 or higher),"Coloration degree (at a wavelength of 480 nm) [20]: 0.019; Selective assimilability by bifid bacteria, in words (bifid bacteria): high in the selective assimilability by bifid bacteria; Yield of non-adsorbed glucans [21]: 269 µg/mL; Yield of adsorbed glucans [21]: 66 µg/mL; Digestibility, judgement in words [23]: relatively-low in digestibility; Judgement of assimilation (turbidity at a wavelength of 750 nm × 5) [22]: +++ (0.3 or higher); Judgement of assimilation (turbidity at a wavelength of 750 nm × 5) [18]: +++ (0.3 or higher); Judgement of assimilation (turbidity at a wavelength of 750 nm × 5) [19]: - (Less than 0.1)"
